Drawing on paper PMC9611727, “Optimization of a Novel Mandelamide-Derived Pyrrolopyrimidine Series of PERK Inhibitors” (Pharmaceutics, 2022), this text covers remaining binding for three compounds.

Holding throughout (assay): scanMAX kinase panel
Assay type in all cases: binding
Settings in all cases: read-out: % Control; for remaining binding at 1 µM: 1000 nM

In one test the target is T1, BLK (Homo sapiens, UniProt P51451).
T1 construct: purchased DiscoverX scanMAX
The source says:
(§1) Supplemental Table S2. scanMAXSM Kinome Assay Results. Complete tabulated data of all 468 kinases from the panel, including
(§2) 403 wild-type and 65 mutant isoforms. […] Cmpd 11 and Cmpd 24

The target in the next test is T2, FLT3(R834Q) (Homo sapiens, UniProt P36888, R834Q).
T2 construct: purchased DiscoverX scanMAX
T2 sequence (P36888 27-993 R834Q): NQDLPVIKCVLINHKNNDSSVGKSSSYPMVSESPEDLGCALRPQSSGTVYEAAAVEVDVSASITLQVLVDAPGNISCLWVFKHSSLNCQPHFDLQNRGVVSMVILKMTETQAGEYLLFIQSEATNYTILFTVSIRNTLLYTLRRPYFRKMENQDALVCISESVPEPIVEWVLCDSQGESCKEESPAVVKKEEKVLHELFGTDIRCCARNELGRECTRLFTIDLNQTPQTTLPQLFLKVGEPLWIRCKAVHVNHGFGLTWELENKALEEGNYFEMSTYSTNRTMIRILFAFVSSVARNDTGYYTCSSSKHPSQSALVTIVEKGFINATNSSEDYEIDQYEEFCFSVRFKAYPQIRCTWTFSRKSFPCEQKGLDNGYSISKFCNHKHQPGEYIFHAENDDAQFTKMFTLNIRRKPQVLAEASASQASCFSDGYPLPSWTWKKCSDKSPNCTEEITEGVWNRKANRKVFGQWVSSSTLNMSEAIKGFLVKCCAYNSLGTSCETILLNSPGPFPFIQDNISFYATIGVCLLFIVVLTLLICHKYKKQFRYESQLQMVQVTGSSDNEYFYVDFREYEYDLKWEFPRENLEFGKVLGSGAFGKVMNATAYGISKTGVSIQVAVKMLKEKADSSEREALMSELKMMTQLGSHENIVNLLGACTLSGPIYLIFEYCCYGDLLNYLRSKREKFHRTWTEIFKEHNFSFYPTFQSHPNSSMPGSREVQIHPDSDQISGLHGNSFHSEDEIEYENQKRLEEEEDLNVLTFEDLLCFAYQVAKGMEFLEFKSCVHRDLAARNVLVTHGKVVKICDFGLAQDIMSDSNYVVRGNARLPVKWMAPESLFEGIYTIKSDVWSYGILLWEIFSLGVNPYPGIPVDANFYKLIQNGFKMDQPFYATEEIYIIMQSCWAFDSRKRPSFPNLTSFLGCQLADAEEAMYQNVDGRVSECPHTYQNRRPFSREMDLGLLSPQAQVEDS
Excerpt: as §1, §2

A further test concerns the target T3, HIPK4 (Homo sapiens, UniProt Q8NE63).
T3 construct: purchased DiscoverX scanMAX
T3 sequence (Q8NE63 1-616): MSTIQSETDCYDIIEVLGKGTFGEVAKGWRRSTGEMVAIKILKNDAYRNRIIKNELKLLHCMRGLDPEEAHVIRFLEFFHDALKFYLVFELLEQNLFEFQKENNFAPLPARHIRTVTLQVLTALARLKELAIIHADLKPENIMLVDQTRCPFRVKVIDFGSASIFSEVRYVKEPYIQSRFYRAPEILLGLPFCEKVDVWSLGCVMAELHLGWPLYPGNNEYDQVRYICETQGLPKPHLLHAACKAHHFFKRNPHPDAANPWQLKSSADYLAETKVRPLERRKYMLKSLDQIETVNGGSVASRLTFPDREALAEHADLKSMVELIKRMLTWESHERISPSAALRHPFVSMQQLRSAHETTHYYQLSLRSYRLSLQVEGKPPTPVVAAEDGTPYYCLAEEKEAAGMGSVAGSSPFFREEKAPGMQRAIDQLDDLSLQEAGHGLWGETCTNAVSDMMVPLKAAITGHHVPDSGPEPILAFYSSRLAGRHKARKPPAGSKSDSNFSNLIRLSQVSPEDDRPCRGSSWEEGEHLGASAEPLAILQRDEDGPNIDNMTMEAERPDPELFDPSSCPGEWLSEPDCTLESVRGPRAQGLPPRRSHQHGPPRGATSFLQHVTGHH
Excerpt: as §1, §2

For another test, the target named is T4, MERTK (Homo sapiens, UniProt Q12866).
T4 construct: purchased DiscoverX scanMAX
T4 sequence (Q12866 21-999): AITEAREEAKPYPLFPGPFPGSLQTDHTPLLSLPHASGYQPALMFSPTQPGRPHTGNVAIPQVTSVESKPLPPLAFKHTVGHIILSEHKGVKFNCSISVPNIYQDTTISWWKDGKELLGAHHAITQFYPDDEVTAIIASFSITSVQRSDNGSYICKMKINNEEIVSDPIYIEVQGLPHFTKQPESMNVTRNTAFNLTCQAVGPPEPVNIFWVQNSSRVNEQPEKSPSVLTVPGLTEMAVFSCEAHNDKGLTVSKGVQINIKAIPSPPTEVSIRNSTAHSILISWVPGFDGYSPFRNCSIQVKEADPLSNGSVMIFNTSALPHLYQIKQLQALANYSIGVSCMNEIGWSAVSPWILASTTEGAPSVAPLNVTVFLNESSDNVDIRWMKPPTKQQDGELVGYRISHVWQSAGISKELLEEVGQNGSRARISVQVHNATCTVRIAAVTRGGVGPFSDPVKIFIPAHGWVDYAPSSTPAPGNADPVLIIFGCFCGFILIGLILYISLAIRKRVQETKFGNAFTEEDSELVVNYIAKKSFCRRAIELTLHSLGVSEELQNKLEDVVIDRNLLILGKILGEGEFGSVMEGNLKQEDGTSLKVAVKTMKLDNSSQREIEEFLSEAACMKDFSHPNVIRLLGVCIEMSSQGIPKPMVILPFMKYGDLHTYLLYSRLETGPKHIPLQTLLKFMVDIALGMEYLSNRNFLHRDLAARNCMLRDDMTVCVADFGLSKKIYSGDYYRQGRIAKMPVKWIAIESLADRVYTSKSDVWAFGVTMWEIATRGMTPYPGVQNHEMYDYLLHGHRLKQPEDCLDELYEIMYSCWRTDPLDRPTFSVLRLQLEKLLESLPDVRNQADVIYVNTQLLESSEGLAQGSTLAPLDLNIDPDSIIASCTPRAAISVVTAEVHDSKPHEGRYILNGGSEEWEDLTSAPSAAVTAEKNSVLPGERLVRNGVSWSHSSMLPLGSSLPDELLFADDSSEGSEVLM
Excerpt: as §1, §2

The target of another test is T5, PDGFRB (Homo sapiens, UniProt P09619).
T5 construct: purchased DiscoverX scanMAX
T5 sequence (P09619 33-1106): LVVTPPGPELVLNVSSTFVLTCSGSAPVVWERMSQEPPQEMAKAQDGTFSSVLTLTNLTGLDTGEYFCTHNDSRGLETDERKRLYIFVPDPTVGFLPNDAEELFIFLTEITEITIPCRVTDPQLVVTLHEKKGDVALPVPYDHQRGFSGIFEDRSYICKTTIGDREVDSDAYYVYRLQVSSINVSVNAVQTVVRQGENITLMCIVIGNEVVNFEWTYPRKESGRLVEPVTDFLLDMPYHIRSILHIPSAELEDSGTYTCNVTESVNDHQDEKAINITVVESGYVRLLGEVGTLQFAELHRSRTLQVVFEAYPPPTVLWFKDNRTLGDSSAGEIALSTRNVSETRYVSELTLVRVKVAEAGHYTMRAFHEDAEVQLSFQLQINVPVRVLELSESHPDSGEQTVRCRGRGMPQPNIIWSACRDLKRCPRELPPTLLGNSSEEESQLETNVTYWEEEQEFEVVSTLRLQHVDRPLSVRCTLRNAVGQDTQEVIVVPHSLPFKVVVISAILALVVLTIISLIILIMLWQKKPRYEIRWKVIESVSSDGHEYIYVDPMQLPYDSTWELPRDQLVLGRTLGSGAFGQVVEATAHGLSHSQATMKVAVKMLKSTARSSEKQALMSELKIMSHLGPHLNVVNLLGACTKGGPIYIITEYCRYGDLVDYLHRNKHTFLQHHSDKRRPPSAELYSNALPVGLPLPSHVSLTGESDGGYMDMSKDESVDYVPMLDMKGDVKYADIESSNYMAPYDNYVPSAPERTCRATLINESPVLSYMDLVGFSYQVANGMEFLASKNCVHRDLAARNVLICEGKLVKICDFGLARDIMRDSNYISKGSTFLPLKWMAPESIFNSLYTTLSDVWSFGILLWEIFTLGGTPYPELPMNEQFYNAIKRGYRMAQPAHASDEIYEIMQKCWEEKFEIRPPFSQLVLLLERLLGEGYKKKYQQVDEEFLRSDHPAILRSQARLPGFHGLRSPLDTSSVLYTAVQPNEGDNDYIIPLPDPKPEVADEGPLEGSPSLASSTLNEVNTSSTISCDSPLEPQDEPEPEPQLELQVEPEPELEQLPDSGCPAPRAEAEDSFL
Excerpt: as §1, §2

A further test addresses T6, PIP5K1C (Homo sapiens, UniProt O60331).
T6 construct: purchased DiscoverX scanMAX
Excerpt: as §1, §2

The next test deals with T7, TESK1 (Homo sapiens, UniProt Q15569).
T7 construct: purchased DiscoverX (scanMAX panel)
T7 sequence (Q15569 whole entry): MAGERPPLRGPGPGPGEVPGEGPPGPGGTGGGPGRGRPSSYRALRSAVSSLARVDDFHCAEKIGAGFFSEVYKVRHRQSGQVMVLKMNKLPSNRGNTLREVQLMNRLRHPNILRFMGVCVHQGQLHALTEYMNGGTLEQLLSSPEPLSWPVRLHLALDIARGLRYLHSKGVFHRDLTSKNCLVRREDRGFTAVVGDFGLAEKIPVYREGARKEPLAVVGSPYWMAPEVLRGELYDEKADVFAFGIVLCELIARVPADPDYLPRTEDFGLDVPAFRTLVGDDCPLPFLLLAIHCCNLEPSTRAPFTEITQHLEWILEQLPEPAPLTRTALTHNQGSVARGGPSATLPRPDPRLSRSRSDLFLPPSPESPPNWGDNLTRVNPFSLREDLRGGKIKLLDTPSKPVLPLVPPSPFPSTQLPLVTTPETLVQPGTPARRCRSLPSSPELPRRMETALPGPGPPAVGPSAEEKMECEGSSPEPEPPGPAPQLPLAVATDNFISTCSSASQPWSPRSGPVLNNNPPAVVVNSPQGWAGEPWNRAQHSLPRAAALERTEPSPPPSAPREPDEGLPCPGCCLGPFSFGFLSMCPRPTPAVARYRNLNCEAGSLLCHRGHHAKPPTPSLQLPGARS
Excerpt: as §1, §2

Another test deals with T8, TYK2(JH2domain-pseudok.) (Homo sapiens, UniProt P29597).
T8 construct: TYK2(JH2domain-pseudok.); purchased DiscoverX (scanMAX panel)
T8 sequence (P29597 589-875 limits assumed): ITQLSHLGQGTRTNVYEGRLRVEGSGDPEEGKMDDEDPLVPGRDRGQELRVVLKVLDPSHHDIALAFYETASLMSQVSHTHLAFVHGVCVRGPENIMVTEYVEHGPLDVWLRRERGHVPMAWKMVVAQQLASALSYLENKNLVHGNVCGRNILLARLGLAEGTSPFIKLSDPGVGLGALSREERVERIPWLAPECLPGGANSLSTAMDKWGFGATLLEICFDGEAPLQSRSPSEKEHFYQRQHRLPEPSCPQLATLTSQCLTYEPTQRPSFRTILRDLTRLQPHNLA
Excerpt: as §1, §2

T6 sequence (O60331 whole entry): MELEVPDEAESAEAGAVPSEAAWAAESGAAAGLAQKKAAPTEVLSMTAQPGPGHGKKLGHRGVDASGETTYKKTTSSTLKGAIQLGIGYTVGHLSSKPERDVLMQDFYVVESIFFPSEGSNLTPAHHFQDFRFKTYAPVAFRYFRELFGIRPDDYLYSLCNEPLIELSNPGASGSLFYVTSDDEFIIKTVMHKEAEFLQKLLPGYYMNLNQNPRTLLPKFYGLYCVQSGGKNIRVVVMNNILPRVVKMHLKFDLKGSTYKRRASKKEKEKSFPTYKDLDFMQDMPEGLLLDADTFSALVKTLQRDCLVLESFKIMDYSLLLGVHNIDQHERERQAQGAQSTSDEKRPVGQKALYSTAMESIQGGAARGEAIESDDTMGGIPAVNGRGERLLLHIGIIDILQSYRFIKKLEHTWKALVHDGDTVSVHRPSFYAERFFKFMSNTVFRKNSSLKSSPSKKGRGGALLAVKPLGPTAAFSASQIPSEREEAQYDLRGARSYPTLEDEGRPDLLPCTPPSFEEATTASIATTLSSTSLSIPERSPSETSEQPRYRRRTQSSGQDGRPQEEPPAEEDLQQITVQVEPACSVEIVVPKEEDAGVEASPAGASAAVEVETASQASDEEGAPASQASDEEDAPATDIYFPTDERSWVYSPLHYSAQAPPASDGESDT
T1 sequence (P51451 whole entry): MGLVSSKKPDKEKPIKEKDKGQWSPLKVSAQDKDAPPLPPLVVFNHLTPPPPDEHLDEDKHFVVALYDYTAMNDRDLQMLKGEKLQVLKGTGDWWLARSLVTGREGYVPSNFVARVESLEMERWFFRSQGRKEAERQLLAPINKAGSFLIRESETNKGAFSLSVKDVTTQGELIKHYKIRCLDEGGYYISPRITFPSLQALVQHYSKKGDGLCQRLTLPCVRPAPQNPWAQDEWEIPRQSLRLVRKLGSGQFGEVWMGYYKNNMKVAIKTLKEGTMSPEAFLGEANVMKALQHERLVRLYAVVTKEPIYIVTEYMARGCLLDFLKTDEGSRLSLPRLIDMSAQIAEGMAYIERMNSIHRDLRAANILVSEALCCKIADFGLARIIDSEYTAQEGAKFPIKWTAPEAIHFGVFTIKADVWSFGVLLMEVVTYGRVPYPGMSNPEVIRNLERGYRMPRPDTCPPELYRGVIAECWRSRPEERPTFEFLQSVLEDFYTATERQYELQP

In the case of `Cc1cc(NC(=O)[C@H](O)c2cccc(F)c2)ccc1-c1cn(C)c2ncnc(N)c12` [Compound 11, (R)-N-(4-(4-amino-7-methyl-7H-pyrrolo[2,3-d]pyrimidin-5-yl)-3-methylphenyl)-2-(3-fluorophenyl)-2-hydroxy acetamide], the remaining binding at 1 µM on BLK came to 19%; on FLT3(R834Q) it was 59%; on HIPK4, 16%; on MERTK it was 65%; on PDGFRB, 40%; at PIP5K1C, 99%. Also, the figures for the remaining binding at 1 µM on TESK1 and on TYK2(JH2domain-pseudok.) were 15% and 80%, respectively.
Turning to `Cc1nc(N)c2c(-c3ccc(NC(=O)[C@H](O)c4cccc(F)c4)cc3C)cn(C)c2n1` [Compound 24], the remaining binding at 1 µM came to 100% at BLK; 98% at FLT3(R834Q); 100% at HIPK4; 100% at MERTK; 100% on PDGFRB; 34% on PIP5K1C. In addition, the remaining binding at 1 µM at TESK1 was determined as 100%; on TYK2(JH2domain-pseudok.), 79%.
Regarding `Cc1nc(N)c2c(-c3ccc(NC(=O)[C@H](O)c4cccc(C(F)(F)F)c4)cc3C)cn(C)c2n1` [Compound 26], the remaining binding at 0.1 µM is 100% at BLK (100 nM); 84% at FLT3(R834Q) (100 nM); 69% on HIPK4 (100 nM); 94% on MERTK (100 nM); 100% at PDGFRB (100 nM); 100% at PIP5K1C (100 nM). Moreover, the results for the remaining binding at 0.1 µM on TESK1 (100 nM) and on TYK2(JH2domain-pseudok.) (100 nM) were 97% and 98%, respectively. Moreover, the remaining binding at 1 µM stood at 91% on BLK; 7.5% on FLT3(R834Q); 3.8% on HIPK4; 29% at MERTK; 11% on PDGFRB; 91% at PIP5K1C. In addition, the remaining binding at 1 µM at TESK1 is 99%; on TYK2(JH2domain-pseudok.), 30%.
